The source of these data is patent US11806342B2, “Diiodohydroxyquinoline for the treatment of clostridium difficile infection” (Purdue Research Foundation, priority 2019, dated 2023).

In test [1] the test system is C. difficile ATCC BAA-1870. As to the kind of experiment: Initial screening of antiparasitic drugs, broth microdilution MIC. It counts as cell-based, Clostridium difficile. As for the experimental part: (§1) C. difficile strains were grown anaerobically on brain heart infusion supplemented (BHIS) agar plates at 37° C. for 48 hours. Afterwards, a bacterial solution equivalent to 0.5 McFarland standard was prepared and diluted in (BHIS) broth to achieve a bacterial concentration of about 5×10^5 CFU/mL. Drugs were added and serially diluted along the plates. Plates were then, incubated anaerobically at 37° C. for 48 hours. MICs reported in Table (1) are the minimum concentrations of the drugs that could completely suppress the visual growth of bacteria.
Background: Dilution methods test growth across graded concentrations, often in twofold steps.

The next test deals with C. difficile ATCC 43255. The test is described as above. It counts as cell-based, Clostridium difficile. As for the experimental part:
as §1

[2] abbreviates: Clostridioides difficile, initial screening, C. difficile ATCC BAA 1870, read-out: MIC.
The mark [3] stands for this setting: Clostridioides difficile, ATCC43255, initial screening, C. difficile ATCC 43255, read-out: MIC.
The mark [4] stands for this setting: Clostridioides difficile, ATCC43255.

Where a name gives a salt, the structure may show the parent alone. Read-outs that look alike come from different tables or passages of the source.

As for `O=C(C1CCCCC1)N1CC(=O)N2CCc3ccccc3C2C1` (stereo not drawn) [Praziquantel, praziquantel], the MIC (in test [1] (setting [2]); in the test with C. difficile ATCC 43255 (setting [3])) was above 128 µg/mL each time.

In the case of `CCc1nc(N)nc(N)c1-c1ccc(Cl)cc1` [Pyrimethamine, pyrimethamine], the minimum inhibitory concentration (MIC) (in test [1] (setting [2]); in the test with C. difficile ATCC 43255 (setting [3])) was above 128 µg/mL in each case.

As to `CCCSc1ccc2nc(NC(=O)OC)[nH]c2c1` [Albendazole, albendazole], the MIC (in test [1] (Clostridioides difficile); against C. difficile ATCC 43255 (setting [4])) was above 128 µg/mL throughout.

Turning to `CCC[S+]([O-])c1ccc2[nH]c(NC(=O)OC)nc2c1` (stereo not drawn) [Ricobendazole, ricobendazole], the MIC (in test [1] (Clostridioides difficile); in the test with C. difficile ATCC 43255 (setting [4])) was above 128 µg/mL each time.

Consider `c1ccc2[nH]c(-c3cscn3)nc2c1` [Thiabendazole, thiabendazole], for which the MIC (in test [1] (setting [2]); with C. difficile ATCC 43255 (setting [3])) was above 128 µg/mL each time.

Take `CN1CCCN=C1/C=C/c1cccs1` [Pyrantel Pamoate, pyrantel pamoate]: the minimal inhibitory concentration (MIC) (in test [1] (setting [2]); with C. difficile ATCC 43255 (setting [3])) was above 128 µg/mL each time.

For `CC(C)OC(=O)Nc1ccc2nc(-c3cscn3)[nH]c2c1` [Cambendazole, cambendazole], the MIC (in general, the least concentration at which growth counts as inhibited) was above 128 µg/mL in test [1] (initial screening, C. difficile ATCC BAA 1870) and above 128 µg/mL against C. difficile ATCC 43255 (initial screening, C. difficile ATCC 43255).

For the compound `COC(=O)Nc1nc2ccc(C(=O)c3ccccc3)cc2[nH]1` [Mebendazole, mebendazole], the MIC (in test [1] (setting [2]); in the test on C. difficile ATCC 43255 (setting [3])) was above 128 µg/mL each time.

Take `NC[C@@H]1O[C@H](O[C@H]2[C@@H](O)[C@H](O[C@@H]3[C@@H](O)[C@H](N)C[C@H](N)[C@H]3O[C@H]3O[C@H](CO)[C@@H](O)[C@H](O)[C@H]3N)O[C@@H]2CO)[C@H](N)[C@@H](O)[C@@H]1O` [Paromomycin, paromomycin sulfate]: the MIC (in test [1] (setting [2]); in the test with C. difficile ATCC 43255 (setting [3])) was above 128 µg/mL throughout.
